These results are taken from patent US20080119515A1, “Heterocyclic Kinase Inhibitors: Methods of Use and Synthesis” (priority 2003, published 2008).

This test has as its target T1, ZAP-70 (Homo sapiens, UniProt P43403).
T1 sequence (P43403 1-619): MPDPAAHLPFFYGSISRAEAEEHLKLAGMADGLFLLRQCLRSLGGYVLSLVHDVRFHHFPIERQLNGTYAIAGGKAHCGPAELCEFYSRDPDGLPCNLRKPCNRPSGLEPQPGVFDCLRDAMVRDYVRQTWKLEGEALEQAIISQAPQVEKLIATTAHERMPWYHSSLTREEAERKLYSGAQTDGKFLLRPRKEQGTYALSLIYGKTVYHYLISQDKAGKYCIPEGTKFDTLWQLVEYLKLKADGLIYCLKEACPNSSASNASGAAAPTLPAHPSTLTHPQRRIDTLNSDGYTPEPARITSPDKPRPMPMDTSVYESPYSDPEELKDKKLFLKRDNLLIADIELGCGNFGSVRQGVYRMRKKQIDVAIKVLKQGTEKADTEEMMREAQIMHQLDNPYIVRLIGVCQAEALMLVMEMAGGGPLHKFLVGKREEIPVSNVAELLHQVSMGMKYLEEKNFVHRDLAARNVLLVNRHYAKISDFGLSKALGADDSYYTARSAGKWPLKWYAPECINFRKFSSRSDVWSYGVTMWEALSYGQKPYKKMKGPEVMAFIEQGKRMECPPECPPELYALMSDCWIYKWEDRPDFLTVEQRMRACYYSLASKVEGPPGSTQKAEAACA
The test can be described thus: DELFIA assay (ZAP-70 kinase, phosphorylation of biotinylated poly(glu,tyr)). In kind it is biochemical. The settings on record: ZAP-70 DELFIA, class symbols; read-out: Activity (IC50 in vitro). An outline of the steps: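 3.1 nM ZAP-70 pre-incubated 10 min at room temperature with compound ([…]) and 62.5 nM biotinylated poly(glu,tyr) in 62.5 mM Mops pH 7.0, 12.5 mM MgCl2, 12.5% glycerol, 6.25% DMSO (pre-incubation concentrations); ATP added from 5 mM stock, 30 min reaction, EDTA stop. Phosphorylation read by DELFIA europium anti-phosphotyrosine fluorescence (340/615).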

As usually defined, the IC50 is the concentration at which inhibition is half-maximal. In the case of `C[C@@H](Nc1cc(C(=O)N2CCC[C@H]2CN2CCCC2)c2cc(-c3ccc4c(c3)OCO4)ccc2n1)c1ccc(Cl)cc1` [Compound 330], the IC50 was under 1 µM.

On to `C[C@H](Nc1cc(C(=O)N2CCC[C@H]2CN2CCCC2)c2cc(-c3ccc4c(c3)OCO4)ccc2n1)c1ccc(Cl)cc1` [Compound 331], for which the half-inhibitory concentration (IC50) is under 1 µM.

As for `O=C(c1cc(NCc2ccc(C(F)(F)F)cc2)nc2ccc(-c3cncnc3)cc12)N1CCC[C@H]1CN1CCCC1` [Compound 332], the IC50 was over 10 µM.

Turning to `O=C(c1cc(NCc2ccc(C(F)(F)F)cc2)nc2ccc(-c3ccccn3)cc12)N1CCC[C@H]1CN1CCCC1` [Compound 333], the concentration for half-maximal inhibition (IC50) is over 10 µM.

Regarding `O=C(c1cc(NCc2ccc(C(F)(F)F)cc2)nc2ccc(-c3cccnc3)cc12)N1CCC[C@H]1CN1CCCC1` [Compound 334], the concentration for half-maximal inhibition (IC50) was over 10 µM.

As to `O=C(c1cc(NCc2ccc(C(F)(F)F)cc2)nc2ccc(-c3cncc4ccccc34)cc12)N1CCC[C@H]1CN1CCCC1` [Compound 335], the IC50 is over 10 µM.

In the case of `O=C(c1cc(NCc2ccc(C(F)(F)F)cc2)nc2ccc(-c3ncccn3)cc12)N1CCC[C@H]1CN1CCCC1` [Compound 336], the IC50 was over 10 µM.

For the molecule `Cc1ccsc1-c1ccc2nc(NCc3ccc(C(F)(F)F)cc3)cc(C(=O)N3CCC[C@H]3CN3CCCC3)c2c1` [Compound 337], the half-maximal inhibitory concentration (IC50) was over 10 µM.

With `Cc1noc(C)c1-c1ccc2nc(NCc3ccc(C(F)(F)F)cc3)cc(C(=O)N3CCC[C@H]3CN3CCCC3)c2c1` [Compound 338], the IC50 was over 10 µM.

For the molecule `N#Cc1cncc(-c2ccc3nc(NCc4ccc(C(F)(F)F)cc4)cc(C(=O)N4CCC[C@H]4CN4CCCC4)c3c2)c1` [Compound 339], the IC50 is over 10 µM.

Regarding `Cn1ccnc1-c1ccc2nc(NCc3ccc(C(F)(F)F)cc3)cc(C(=O)N3CCC[C@H]3CN3CCCC3)c2c1` [Compound 340], the 50% inhibitory concentration (IC50) is over 10 µM.

Take `O=C(c1cc(NCc2ccc(C(F)(F)F)cc2)nc2ccc(-c3nc(Cl)ns3)cc12)N1CCC[C@H]1CN1CCCC1` [Compound 341]: the half-inhibitory concentration (IC50) is over 10 µM.

Consider `Cn1cncc1-c1ccc2nc(NCc3ccc(C(F)(F)F)cc3)cc(C(=O)N3CCC[C@H]3CN3CCCC3)c2c1` [Compound 342], for which the concentration for half-maximal inhibition (IC50) was over 10 µM.

Regarding `N#Cc1ncccc1-c1ccc2nc(NCc3ccc(C(F)(F)F)cc3)cc(C(=O)N3CCC[C@H]3CN3CCCC3)c2c1` [Compound 343], the IC50 was over 10 µM.

Take `O=C(c1cc(NCc2ccc(C(F)(F)F)cc2)nc2ccc(-c3ccc(F)c(F)c3)cc12)N1CCC[C@H]1CN1CCCC1` [Compound 344]: the IC50 was under 1 µM.

As for `O=C(c1cc(NCc2ccc(C(F)(F)F)cc2)nc2ccc(-c3ccc(C(F)(F)F)cc3)cc12)N1CCC[C@H]1CN1CCCC1` [Compound 345], the IC50 was over 10 µM.

Regarding `O=C(c1cc(NCc2ccc(C(F)(F)F)cc2)nc2ccc(-c3cccc(Cl)c3Cl)cc12)N1CCC[C@H]1CN1CCCC1` [Compound 346], the IC50 was over 10 µM.

For the molecule `O=C(c1cc(NCc2ccc(C(F)(F)F)cc2)nc2ccc(-c3ccccc3Cl)cc12)N1CCC[C@H]1CN1CCCC1` [Compound 347], the concentration for half-maximal inhibition (IC50) was over 10 µM.

Take `O=C(c1cc(NCc2ccc(C(F)(F)F)cc2)nc2ccc(-c3ccc4c(c3)OC(F)(F)O4)cc12)N1CCC[C@H]1CN1CCCC1` [Compound 348]: the IC50 is under 1 µM.

For `O=C(c1cc(NCc2ccc(C(F)(F)F)cc2)nc2ccc(-c3ccc4occc4c3)cc12)N1CCC[C@H]1CN1CCCC1` [Compound 349], the IC50 was under 1 µM.

With `O=C(c1cc(NCc2ccc(C(F)(F)F)cc2)nc2ccc(-c3ccc(SC(F)(F)F)cc3)cc12)N1CCC[C@H]1CN1CCCC1` [Compound 350], the IC50 is over 10 µM.

Take `N#Cc1csc2ccc(-c3ccc4nc(NCc5ccc(C(F)(F)F)cc5)cc(C(=O)N5CCC[C@H]5CN5CCCC5)c4c3)cc12` [Compound 351]: the IC50 was under 1 µM.

For the molecule `O=C(c1cc(NCc2ccc(C(F)(F)F)cc2)nc2ccc(-c3ccc4ncsc4c3)cc12)N1CCC[C@H]1CN1CCCC1` [Compound 352], the concentration for half-maximal inhibition (IC50) is under 1 µM.

As for `Cc1c(-c2ccc3nc(NCc4ccc(C(F)(F)F)cc4)cc(C(=O)N4CCC[C@H]4CN4CCCC4)c3c2)sc2ccc(Cl)cc12` [Compound 353], the IC50 was over 10 µM.

As to `O=C(c1cc(NCc2ccc(C(F)(F)F)cc2)nc2ccc(-c3nc4ccccc4[nH]3)cc12)N1CCC[C@H]1CN1CCCC1` [Compound 354], the IC50 is over 10 µM.

For the molecule `O=C(c1cc(NCc2ccc(C(F)(F)F)cc2)nc2ccc(-c3ccc(-c4cnco4)s3)cc12)N1CCC[C@H]1CN1CCCC1` [Compound 355], the 50% inhibitory concentration (IC50) was over 10 µM.

With `O=C(c1cc(NCc2ccc(C(F)(F)F)cc2)nc2ccc(I)cc12)N1CCC[C@H]1CN1CCCC1` [Compound 356], the concentration for half-maximal inhibition (IC50) was over 10 µM.

With `CNC[C@@H]1CCCN1C(=O)c1cc(NCc2ccc(C(F)(F)F)cc2)nc2ccc(-c3ccc4c(c3)OCO4)cc12` [Compound 357], the IC50 is 1 to 10 µM.

Take `O=C(c1cc(NCc2ccc(C(F)(F)F)cc2)nc2ccc(-c3ccc4c(c3)OCO4)cc12)N1CCC[C@H]1CNC1CCCC1` [Compound 358]: the IC50 is under 1 µM.

Regarding `O=C(c1cc(NCc2ccc(C(F)(F)F)cc2)nc2ccc(-c3ccc4c(c3)OCO4)cc12)N1CCC[C@H]1CNC1CCC1` [Compound 359], the half-inhibitory concentration (IC50) was under 1 µM.

Regarding `O=C(c1cc(NCc2ccc(C(F)(F)F)cc2)nc2ccc(-c3ccc4c(c3)OCO4)cc12)N1CCC[C@H]1CNC1CCCCC1` [Compound 360], the 50% inhibitory concentration (IC50) was 1 to 10 µM.

As to `O=C(c1cc(NCc2ccc(C(F)(F)F)cc2)nc2ccc(-c3ccc4c(c3)OCO4)cc12)N1CCC[C@H]1CNC1CC1` [Compound 361], the IC50 was 1 to 10 µM.

In the case of `O=C(c1cc(NCc2ccc(C(F)(F)F)cc2)nc2ccc(-c3ccc4c(c3)OCO4)cc12)N1CCC[C@H]1CO` [Compound 362], the IC50 was over 10 µM.

`CN(Cc1ccccc1)c1cc(C(=O)N2CCC[C@H]2CN2CCCC2)cc(N(C)c2ccccc2)n1` [Compound 363]: the IC50 lay within 1 to 10 µM.

As to `CN(CCc1ccccc1)c1cc(C(=O)N2CCC[C@H]2CN2CCCC2)cc(N(C)Cc2ccccc2)n1` [Compound 364], the half-inhibitory concentration (IC50) was 1 to 10 µM.

Turning to `CN(CCc1ccccc1)c1cc(C(=O)N2CCC[C@H]2CN2CCCC2)cc(/C=C/c2ccccc2)n1` [Compound 365], the half-maximal inhibitory concentration (IC50) was 1 to 10 µM.

For `CN(CCc1ccccc1)c1cc(C(=O)N2CCC[C@H]2CN2CCCC2)cc(/C=C/c2ccc(C(F)(F)F)cc2)n1` [Compound 366], the half-inhibitory concentration (IC50) lay within 1 to 10 µM.

For `CN(CCc1ccccc1)c1cc(C(=O)N2CCC[C@H]2CN2CCCC2)cc(-c2ccccc2)n1` [Compound 367], the half-maximal inhibitory concentration (IC50) was over 10 µM.

Consider `CN(CCc1ccccc1)c1cc(C(=O)N2CCC[C@H]2CN2CCCC2)cc(-c2ccc3c(c2)OCO3)n1` [Compound 368], for which the IC50 is over 10 µM.

In the case of `CN(CCc1ccccc1)c1cc(C(=O)N2CCC[C@H]2CN2CCCC2)cc(Cc2ccccc2)n1` [Compound 369], the IC50 was over 10 µM.

On to `CN(CCc1ccccc1)c1cc(C(=O)N2CCC[C@H]2CN2CCCC2)cc(N2CCOCC2)n1` [Compound 370], for which the half-maximal inhibitory concentration (IC50) was over 10 µM.

Take `CN(CCc1ccccc1)c1cc(C(=O)N2CCC[C@H]2CN2CCCC2)cc(N(C)c2ccccc2)n1` [Compound 371]: the IC50 is over 10 µM.

With `CN(CCc1ccccc1)c1cc(C(=O)N2CCC[C@H]2CN2CCCC2)cc(N(C)CCc2ccccc2)n1` [Compound 372], the IC50 was 1 to 10 µM.

As for `FC(F)(F)c1ccc(CNc2cc(C(=S)N3CCC[C@H]3CN3CCCC3)c3cc(-c4ccc5c(c4)OCO5)ccc3n2)cc1` [Compound 373], the IC50 lay in the range of 1 to 10 µM.

With `O=C(c1cc(NCc2ccc(Cl)cc2)nc2ccc(-c3ccc4c(c3)OCO4)cc12)N1CC[C@H]1CN1CCCC1` [Compound 374], the IC50 was 1 to 10 µM.

As to `O=C(c1cc(NCc2ccc(C(F)(F)F)cc2)nc2ccc(-c3ccc4c(c3)OCO4)cc12)N1CCCC[C@H]1CN1CCCC1` [Compound 375], the IC50 lay within 1 to 10 µM.

With `O=C(c1cc(NCc2ccc(Cl)cc2)nc2ccc(-c3ccc4c(c3)OCO4)cc12)N1CCCC[C@H]1CN1CCCC1` [Compound 376], the half-inhibitory concentration (IC50) lay within 1 to 10 µM.

Consider `N=C(NC1CC1)[C@@H]1CCCN1C(=O)c1cc(NCc2ccc(C(F)(F)F)cc2)nc2ccc(-c3ccc4c(c3)OCO4)cc12` [Compound 377], for which the concentration for half-maximal inhibition (IC50) is over 10 µM.

Consider `N=C(NC1CCC1)[C@@H]1CCCN1C(=O)c1cc(NCc2ccc(C(F)(F)F)cc2)nc2ccc(-c3ccc4c(c3)OCO4)cc12` [Compound 378], for which the concentration for half-maximal inhibition (IC50) was over 10 µM.

`N=C(NC1CCCC1)[C@@H]1CCCN1C(=O)c1cc(NCc2ccc(C(F)(F)F)cc2)nc2ccc(-c3ccc4c(c3)OCO4)cc12` [Compound 379]: the IC50 was over 10 µM.

In the case of `N=C(NC1CCCCC1)[C@@H]1CCCN1C(=O)c1cc(NCc2ccc(C(F)(F)F)cc2)nc2ccc(-c3ccc4c(c3)OCO4)cc12` [Compound 380], the IC50 was over 10 µM.

Turning to `N=C([C@@H]1CCCN1C(=O)c1cc(NCc2ccc(C(F)(F)F)cc2)nc2ccc(-c3ccc4c(c3)OCO4)cc12)N1CCCC1` [Compound 381], the half-inhibitory concentration (IC50) was over 10 µM.
